Target: T1, Nanoluciferase-BRD9 fusion protein (3×FLAG-NLuc-BRD9) in SYO-1 cells (Homo sapiens, UniProt Q9H8M2)
T1 construct: expressed in transfected cells; host or cells: SYO-1
T1 sequence (Q9H8M2 1-597): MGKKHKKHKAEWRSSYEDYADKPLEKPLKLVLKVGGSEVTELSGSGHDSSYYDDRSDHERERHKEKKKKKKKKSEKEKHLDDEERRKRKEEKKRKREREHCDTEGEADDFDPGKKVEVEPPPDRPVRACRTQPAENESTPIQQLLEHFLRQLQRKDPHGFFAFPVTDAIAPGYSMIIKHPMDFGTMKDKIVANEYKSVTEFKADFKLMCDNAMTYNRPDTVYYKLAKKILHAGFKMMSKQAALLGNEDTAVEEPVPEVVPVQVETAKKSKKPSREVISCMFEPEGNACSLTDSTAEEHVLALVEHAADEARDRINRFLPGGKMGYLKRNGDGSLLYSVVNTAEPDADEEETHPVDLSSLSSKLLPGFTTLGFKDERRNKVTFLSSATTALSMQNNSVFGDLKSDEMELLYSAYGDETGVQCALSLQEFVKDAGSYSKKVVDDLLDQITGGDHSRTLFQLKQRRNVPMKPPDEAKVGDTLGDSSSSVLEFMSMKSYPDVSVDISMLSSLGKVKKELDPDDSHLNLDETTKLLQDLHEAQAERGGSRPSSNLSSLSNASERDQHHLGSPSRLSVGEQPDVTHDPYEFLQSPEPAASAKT
Test: SYO1 BRD9 NanoLuc Degradation Assay
Format: cell-based
Details: Table 6C; SYO-1 cells expressing 3×FLAG-NLuc-BRD9, 6 hours incubation, 1 μM top dose; read-out: SYO1 BRD9-NanoLuc degradation IC50
How it was run: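 NanoLuc signal, read by Nano-Glo luminescence after 6 h compound exposure, gives % inhibition against DMSO-treated cells (high control) and cells given 1 μM of a standard BRD9 degrader (low control). Test compounds ran as 10-point 3-fold series, top 1 μM final, in duplicate on SYO-1 cells stably expressing 3×FLAG-NLuc-BRD9.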

Row | SMILES | DC50 [nM]
1 | COc1cc(-c2cn(C)c(=O)c3cnc(N4CCC4)cc23)cc(OC)c1CN1CC(CN2CCC3(CC2)CN(c2ccc4c(c2)C(=O)N(C2CCC(=O)N(C)C2=O)C4)C3)C1 (stereo not drawn) [Compound D259] | ≥ 1000
2 | COc1cc(-c2cn(C)c(=O)c3cnc(N4CC(F)(F)C4)cc23)cc(OC)c1CN1CCC(CN2CCC3(CC2)CN(c2ccc4c(c2)C(=O)N(C2CCC(=O)N(C)C2=O)C4)C3)CC1 (stereo not drawn) [Compound D261] | ≥ 1000
3 | COc1cc(-c2cn(C)c(=O)c3cnc(N(C)C)cc23)cc(OC)c1CN1CCN(c2cnn(C3CCC(=O)NC3=O)c2)CC1 (stereo not drawn) [Compound D270] | 10 to 100
4 | COc1cc2c(-c3cc(OC)c(CN4CCN(c5cccc(OC6CCC(=O)NC6=O)c5)CC4)c(OC)c3)cn(C)c(=O)c2cn1 (stereo not drawn) [Compound D282] | 10 to 100
5 | COc1cc(-c2nn(C)c(=O)c3cnc(N4CCC4)cc23)cc(OC)c1CN1CCC(CN2CCC3(CC2)CC(Oc2ccc4c(c2)C(=O)N(C2CCC(=O)NC2=O)C4)C3)CC1 (stereo not drawn) [Compound D283] | 100 to 1000
6 | COc1cc(-c2cn(C)c(=O)c3ccc(N(C)C)cc23)cc(OC)c1CN1CC(CN2CCC3(CC2)CN(c2ccc4c(c2)C(=O)N(C2CCC(=O)NC2=O)C4)C3)C1 (stereo not drawn) [Compound D285] | ≥ 1000
7 | COc1cc(-c2cn(C)c(=O)c3cnc(N4CCC4)cc23)cc(OC)c1C1CCN(c2ccc3c(c2)C(=O)N(C2CCC(=O)NC2=O)C3)CC1 (stereo not drawn) [Compound D294] | < 10
8 | COc1cc2c(-c3cc(OC)c(C4CCN(c5ccc6c(c5)C(=O)N(C5CCC(=O)NC5=O)C6)CC4)c(OC)c3)cn(C)c(=O)c2cn1 (stereo not drawn) [Compound D295] | < 10
9 | COc1cc(-c2cn(C)c(=O)c3cnc(N(C)C)cc23)cc(OC)c1CN1CCC(c2ccc3c(c2)C(=O)N(C2CCC(=O)NC2=O)C3)CC1 (stereo not drawn) [Compound D296] | < 10
10 | COc1cc(-c2cn(C)c(=O)c3cnc(N(C)C)cc23)cc(OC)c1CN1CCC(c2ccc3c(c2)CN(C2CCC(=O)NC2=O)C3=O)CC1 (stereo not drawn) [Compound D297] | < 10
11 | COc1cc(-c2cn(C)c(=O)c3cnc(N(C)C)cc23)cc(OC)c1CCN1CCC(CN2CCC3(CC2)CC(Oc2ccc4c(c2)C(=O)N(C2CCC(=O)NC2=O)C4)C3)CC1 (stereo not drawn) [Compound D298] | < 10
12 | COc1cc(-c2cn(C)c(=O)c3cnc(C4CC4)cc23)cc(OC)c1CN1CCN(CCC2CCN(c3ccc4c(c3)C(=O)N(C3CCC(=O)NC3=O)C4=O)CC2)CC1 (stereo not drawn) [Compound D299] | < 10
13 | COc1cc(-c2cn(C)c(=O)c3cnc(C4CC4)cc23)cc(OC)c1CN1CC(Oc2ccc3c(c2)C(=O)N(C2CCC(=O)NC2=O)C3)C1 (stereo not drawn) [Compound D300] | < 10
14 | COc1cc(-c2cn(C)c(=O)c3cnc(C4CC4)cc23)cc(OC)c1CN1CCC(CN2CCC3(CC2)CC(Oc2ccc4c(c2)C(=O)N(C2CCC(=O)NC2=O)C4=O)C3)CC1 (stereo not drawn) [Compound D301] | < 10
15 | COc1cc(-c2cn(C)c(=O)c3cnc(C4CC4)cc23)cc(OC)c1CN1CCC(CN2CCC3(CC2)CC(Oc2ccc4c(c2)C(=O)N(C2CCC(=O)NC2=O)C4)C3)CC1 (stereo not drawn) [Compound D302] | < 10
16 | COc1cc(-c2cn(C)c(=O)c3cnc(C4CC4)cc23)cc(OC)c1CN1CC(CN2CCC3(CC2)CN(c2ccc4c(c2)C(=O)N(C2CCC(=O)NC2=O)C4=O)C3)C1 (stereo not drawn) [Compound D303] | < 10
17 | COc1cc(-c2cn(C)c(=O)c3cnc(C4CC4)cc23)cc(OC)c1CN1CCC(CCN2CCN(c3ccc4c(c3)C(=O)N(C3CCC(=O)NC3=O)C4=O)CC2)CC1 (stereo not drawn) [Compound D304] | < 10
18 | COc1cc(-c2cn(C)c(=O)c3cnc(C4CC4)cc23)cc(OC)c1CN1CCC(CCN2CCN(c3ccc4c(c3)C(=O)N(C3CCC(=O)NC3=O)C4)CC2)CC1 (stereo not drawn) [Compound D305] | < 10
19 | [2H]C([2H])([2H])n1cc(-c2cc(OC)c(CN3CC(CN4CCC5(CC4)CN(c4ccc6c(c4)C(=O)N(C4CCC(=O)NC4=O)C6=O)C5)C3)c(OC)c2)c2cc(C3CC3)ncc2c1=O (stereo not drawn) [Compound D306] | < 10

Other lines, results leading:

Row | DC50 [nM] | SMILES
20 | < 10 | COc1cc2c(-c3cc(OC)c(CN4CCN(c5ccc6c(c5)C(=O)N(C5CCC(=O)NC5=O)C6)CC4(C)C)c(OC)c3)cn(C)c(=O)c2cn1 (stereo not drawn) [Compound D260]
21 | < 10 | CN(C)c1cc2c(-c3ccc(N(C)C4CCN(c5ccc6c(c5)C(=O)N(C5CCC(=O)NC5=O)C6)CC4)cc3)cn(C)c(=O)c2cn1 (stereo not drawn) [Compound D262]
22 | < 10 | COc1cc(-c2cn(C)c(=O)c3cnc(C4CC4)cc23)cc(OC)c1CN1CC(C#Cc2ccc3c(c2)C(=O)N(C2CCC(=O)NC2=O)C3)C1 (stereo not drawn) [Compound D263]
23 | < 10 | CCc1cc(-c2cn(C)c(=O)c3cnc(N4CCC4)cc23)cc(OC)c1CN1CCC2(CC1)CN(c1ccc3c(c1)C(=O)N(C1CCC(=O)NC1=O)C3)C2 (stereo not drawn) [Compound D264]
24 | < 10 | COc1cc(-c2cn(C)c(=O)c3cnc(N(C)C)cc23)cc(OC)c1C1CCN(c2ccc3c(c2)C(=O)N(C2CCC(=O)NC2=O)C3)CC1 (stereo not drawn) [Compound D265]
25 | < 10 | COc1cc(-c2cn(C)c(=O)c3cnc(N(C)C)cc23)cc(OC)c1CN1CC(C#Cc2ccc3c(c2)C(=O)N(C2CCC(=O)NC2=O)C3)C1 (stereo not drawn) [Compound D267]
26 | < 10 | COc1cc(-c2cn(C)c(=O)c3cnc(N(C)C)cc23)cc(OC)c1CN1CC(N(C)c2ccc3c(c2)C(=O)N(C2CCC(=O)NC2=O)C3=O)C1 (stereo not drawn) [Compound D268]
27 | < 10 | COc1cc(-c2cn(C)c(=O)c3cnc(C4CC4)cc23)cc(OC)c1CN1CCC(C#Cc2ccc3c(c2)C(=O)N(C2CCC(=O)NC2=O)C3)CC1 (stereo not drawn) [Compound D269]
28 | < 10 | COc1cc(-c2cn(C)c(=O)c3cnc(C4CC4)cc23)cc(OC)c1CN1CC(C#Cc2ccc3c(c2)CN(C2CCC(=O)NC2=O)C3=O)C1 (stereo not drawn) [Compound D271]
29 | < 10 | COc1cc(-c2cn(C)c(=O)c3cnc(C4CC4)cc23)cc(OC)c1CN1CCC(C#Cc2ccc3c(c2)C(=O)N(C2CCC(=O)NC2=O)C3=O)CC1 (stereo not drawn) [Compound D272]
30 | < 10 | COc1cc(-c2cn(C)c(=O)c3cnc(N(C)C)cc23)cc(OC)c1CN1CCC(C#Cc2ccc3c(c2)C(=O)N(C2CCC(=O)NC2=O)C3=O)CC1 (stereo not drawn) [Compound D273]
31 | < 10 | COc1cc(-c2cn(C)c(=O)c3cnc(N(C)C)cc23)cc(OC)c1-c1ccc2c(c1)C(=O)N(C1CCC(=O)NC1=O)C2 (stereo not drawn) [Compound D274]
32 | < 10 | COc1cc(-c2cn(C)c(=O)c3cnc(C4CC4)cc23)cc(OC)c1CN1CC(C#Cc2ccc3c(c2)C(=O)N(C2CCC(=O)NC2=O)C3=O)C1 (stereo not drawn) [Compound D275]
33 | < 10 | [2H]C([2H])([2H])n1cc(-c2cc(OC)c(CN3[C@H](C)CN(c4ccc5c(c4)C(=O)N(C4CCC(=O)NC4=O)C5)C[C@H]3C)c(OC)c2)c2cc(N(C)C)ncc2c1=O (stereo partly drawn) [Compound D276]
34 | < 10 | COc1cc(-c2cn(C)c(=O)c3cnc(N(C)C)cc23)cc(OC)c1CN(C)c1ccc2c(c1)CN(C1CCC(=O)NC1=O)C2=O (stereo not drawn) [Compound D277]
35 | < 10 | COc1cc(-c2cn(C)c(=O)c3cnc(N4CC(F)(F)C4)cc23)cc(OC)c1CN1CCN(c2ccc3c(c2)C(=O)N(C2CCC(=O)NC2=O)C3)CC1(C)C (stereo not drawn) [Compound D278]
36 | < 10 | COc1cc(N(C)C2CCN(c3ccc4c(c3)C(=O)N(C3CCC(=O)NC3=O)C4)CC2)c(OC)cc1-c1cn(C)c(=O)c2cnc(N(C)C)cc12 (stereo not drawn) [Compound D279]
37 | < 10 | COc1cc(-c2cn(C)c(=O)c3cnc(N(C)C)cc23)cc(OC)c1CC1CCN(c2ccc3c(c2)C(=O)N(C2CCC(=O)NC2=O)C3)CC1 (stereo not drawn) [Compound D280]
38 | < 10 | COc1cc2c(-c3cc(OC)c(CN4[C@H](C)CN(c5ccc6c(c5)C(=O)N(C5CCC(=O)NC5=O)C6)C[C@H]4C)c(OC)c3)cn(C)c(=O)c2cn1 (stereo partly drawn) [Compound D281]
39 | < 10 | COc1cc(-c2cn(C)c(=O)c3cnc(N4CCC4)nc23)cc(OC)c1CN1CCC(CN2CCC3(CC2)CC(Oc2ccc4c(c2)C(=O)N(C2CCC(=O)NC2=O)C4)C3)CC1 (stereo not drawn) [Compound D286]
40 | < 10 | COc1cc(-c2cn(C)c(=O)c3cc(F)ccc23)cc(OC)c1CN1CCC(CN2CCC3(CC2)CC(Oc2ccc4c(c2)C(=O)N(C2CCC(=O)NC2=O)C4)C3)CC1 (stereo not drawn) [Compound D287]
41 | < 10 | COc1cc2c(-c3cc(OC)c(CN4CCC(c5ccc6c(c5)C(=O)N(C5CCC(=O)NC5=O)C6)CC4)c(OC)c3)cn(C)c(=O)c2cn1 (stereo not drawn) [Compound D288]
42 | < 10 | COc1cc2c(-c3cc(OC)c(CN4CCC(CN5CCC6(CC5)CN(c5ccc7c(c5)C(=O)N(C5CCC(=O)NC5=O)C7)C6)CC4)c(OC)c3)cn(C)c(=O)c2cn1 (stereo not drawn) [Compound D289]
43 | < 10 | COc1cc(-c2cn(C)c(=O)c3cnc(N4CCC4)cc23)cc(OC)c1CN1CCN(c2ccc3c(c2)C(=O)N(C2CCC(=O)NC2=O)C3)CC1(C)C (stereo not drawn) [Compound D290]
44 | < 10 | COc1cc(-c2cn(C)c(=O)c3cnc(N4CC(F)(F)C4)cc23)cc(OC)c1CN1CCC(CN2CCC3(CC2)CN(c2ccc4c(c2)C(=O)N(C2CCC(=O)NC2=O)C4)C3)CC1 (stereo not drawn) [Compound D291]
45 | < 10 | COc1cc2c(-c3cc(OC)c(CN4CCN(c5ccc6c(c5)C(=O)N(C5CCC(=O)NC5=O)C6)CC4C)c(OC)c3)cn(C)c(=O)c2cn1 (stereo not drawn) [Compound D293]
